# Test system: blood glucose
# Test: Insulin delivery by aiptasia stinging capsule gel, blood glucose in nude mice
# Format: in vivo
# Conditions: topical aiptasia stinging capsule gel plus Humolin, blood glucose at 0, 30, 60 and 90 minutes after gel activation, FIG. 3
# Experimental: The potential of the stinging capsule patch to deliver an agent (insulin) into the blood stream was tested with aiptasia capsules.
# Materials—Commercial Insulin—Humolin of EliLilly was tested. Unless otherwise noted, all chemicals were purchased from Sigma (Aldrich).
# Animals—6-9 week old nude mice each weighing 20-30 gr were used.
# Insulin Delivery—Mice were topically applied with the aiptasia stinging capsule gel and Humolin. A few microlitres of blood were drawn from the tail tip prior to insulin application (time 0) and thirty minutes, sixty minutes and ninety minutes following gel activation. Blood glucose concentration was measured using a human glucometer.
# In parallel, and as a positive control, mice were subcutaneously injected with Humolin.
substance,measurement,value
insulin,insulin delivery / blood glucose regulation compared with subcutaneous injection,in a similar manner as subcutaneous injection
